Values of other authors in patent publication US11357858B2, “Pharmaceutical compositions for the treatment of postoperative pain” (FIDIA FARMACEUTICI S.P.A., priority 2018, dated 2022).
Structures can show the parent of a compound that is named as a salt.

Details: in vivo

CCCN1CCCC[C@H]1C(=O)Nc1c(C)cccc1C [ropivacaine HCl]
maximum dose which can be administered without the onset of side effects: about 2.5 mg/kg
